The target of this test is T1, Angiotensin II Receptor (Bos taurus, UniProt P25104).
T1 construct: beef adrenal glands are processed as follows: fresh adrenal glands received on crushed ice are cleaned of fatty tissues; tissue Maxwell-Cohen (local slaughter house); host or cells: beef adrenal cortex, microsomal membranes (100,000×g pellet)
T1 sequence (P25104 1-359): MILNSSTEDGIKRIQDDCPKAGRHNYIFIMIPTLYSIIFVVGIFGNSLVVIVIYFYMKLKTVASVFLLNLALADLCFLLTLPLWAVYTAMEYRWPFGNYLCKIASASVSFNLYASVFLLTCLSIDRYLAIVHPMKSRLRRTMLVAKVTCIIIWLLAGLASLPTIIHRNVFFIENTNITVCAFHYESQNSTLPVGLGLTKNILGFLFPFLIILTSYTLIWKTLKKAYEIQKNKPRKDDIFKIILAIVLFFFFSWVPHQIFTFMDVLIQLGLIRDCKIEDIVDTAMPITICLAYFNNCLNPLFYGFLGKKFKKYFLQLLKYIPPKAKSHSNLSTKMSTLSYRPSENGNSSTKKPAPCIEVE
In words: Receptor Binding Assay: displacement of [125I](Sar1,Ile8)AngII from beef adrenal cortex microsomal membranes. The following applies: 60 min room temperature. The source says: Beef adrenals are obtained from a local slaughter house (Maxwell-Cohen).
[^125 I](Sar^1,Ile^8)AngII, S.A. 2200 Ci/mmole, is purchased from Dupont (NEN®, Boston, Mass.). All unlabeled AngII analogs, Dimethylsulfoxide (DMSO), nucleotides, bovine serum albumin (BSA) are purchased from Sigma Chemical Co., St. Louis, Mo. U.S.A.
Approximately sixteen (16) to twenty (20) beef adrenal glands are processed as follows: fresh adrenal glands received on crushed ice are cleaned of fatty tissues and the tough membranes encapsulating the glands are removed and discarded. The brownish tissue forming the adrenal cortex is scraped off and finely minced with scissors before homogenization. Care is taken to avoid contamination with medullary tissue during dissection. The scraped cortices are suspended in twenty volumes of an ice-cold buffer medium consisting of 10 mM Tris.HCl (pH 7.4 at 22° C.) and containing 1.0 mM EDTA and 0.2M sucrose. Unless otherwise indicated, all subsequent operations are done at 4° C. […] The homogenate is centrifuged first at low speed (3,000×g) for 10 min. The resulting pellet is discarded and the supernatant fluid recentrifuged at 10,000×g for 15 minutes to give a P2 pellet. This P2 pellet is discarded and the liquid phase is carefully decanted off in clean centrifuge tubes and recentrifuged at high speed (100,000×g) for 60 min. The translucent final pellet is harvested and combined in a small volume (20-50.0 ml) of 50.0 mM Tris.HCl buffer, pH 7.2. A 100 ul aliquot is withdrawn and the protein content of the preparation is determined by the Lowry's method (Lowry, O. H., Rosebrough, N. F., Farr, A. L. and Randall, R. J., Protein measurement with Folin phenol reagent. J. Biol. Chem., […], 265-275, 1951). The pelleted membrane is reconstituted in 50.0 mM Tris.HCl buffer containing 0.1 mM of phenylmethylsulfonyl fluoride (PMSF) to give approximately a protein concentration of 2.5 mg per ml of tissue suspension. The membrane preparation is finally aliquoted in 1.0 ml volumes and stored at -70° C. until use in the binding assays.
The binding of [^125 I](Sar^1.Ile^8)AngII to microsomal membranes is initiated by the addition of reconstituted membranes (1:10 vols.) in freshly made 50.0 mM Tris.HCl buffer, pH 7.4 containing 0.25% heat inactivated bovine serum albumin (BSA): 80 ul membrane protein (10 to 20 ug/assay) to wells already containing 100 ul of incubation buffer (as described above) and 20 ul [^125 I](Sar^1,Ile^8)AmgII (Specific Activity, 2200 Ci/mmole) Non-specific binding is measured in the presence of 1.0 uM unlabeled (Sar^1,Ile^8)AngII, added in 20 ul volume. Specific binding for [^125 I](Sar^1,Ile^8) AngII is greater than 90%. In competition studies, experimental compounds are diluted in dimethylsulfoxide (DMSO) and added in 20 ul to wells before the introduction of tissue membranes. This concentration of DMSO is found to have no negative effects on the binding of [^ 125I] (Sar^1,Ile^8) AngII to the membranes. Assays are performed in triplicate. The wells are left undisturbed for 60 min. at room temperature. […] Presoaking the filter sheet in 0.1% polyethyleneimine in normal saline (PEI/Saline) greatly reduces the radioactivity retained by the filter blanks. […] The filters are removed from the filter grid and counted in a Parkard® Cobra Gamma Counder for 1 min. […] The binding data are analyzed by the non-linear interactive "LUNDON-1" program (LUNDON SOFTWARE Inc., Cleveland, Ohio U.S.A.).

We go through 1 compound from patent publication US5281604A, “Angiotensin II receptor blocking 2,3,6-substituted quinazolinones” (American Cyanamid Company, priority 1993, dated 1994).

By IC50 is commonly meant the concentration needed to halve the response being measured. Lower therefore signals greater potency in that assay. `CCCCc1nc2ccc([C@H]3OC[C@@H]4ON5[C@@H](CCC5(C)C)[C@@H]43)cc2c(=O)n1Cc1ccc(-c2ccccc2-c2nnn[nH]2)cc1` (relative stereo) [Example 8, (3α, 3aα, 8aβ, 8bα)'-2-Butyl-6-(6,6-dimethylocta hydrofuro[3,4-d][1,2-b]isoxazol-3-yl)-3[[2'-(1H-tetrazol-5-yl)[1,1'biphenyl]-4yl]methyl]-4(3H) quinazolinone] came in with an IC50 of 37 nM.
